Laboratory results from patent publication US20190365719A1, “COMBINATION TREATMENTS OF HSP90 INHIBITORS FOR ENHANCING TUMOR IMMUNOGENICITY AND METHODS OF USE THEREOF” (Massachusetts Institute of Technology, priority 2018, published 2019).

Key:
[1] = tested on: immune-related genes; assay: NanoString immune profiling of whole blood from breast cancer patients given ganetespib; assay type: in vivo, human; conditions: 20-24 hours post intravenous drug administration, recommended Phase II dose
Method: Blood samples for gene expression analyses were obtained with informed consent from patients participating in an IRB-approved clinical trial coordinated by the Dana-Farber Cancer Institute, Boston, Mass. (DFCI 11-477, NCT01560416). All samples were processed and analyzed by collaborating investigators in an anonymous fashion to preserve patient confidentiality.
Gene expression measurements using Nanostring codesets were performed with NanoString XT GEx kits. Analyses were performed on total RNA from clinical samples or mouse tumor tissue following manufacturer's instructions. Briefly, 100 ng total RNA (measured by Qubit (Invitrogen)), was mixed with Capture and Reporter probe sets and hybridized for 16-20 hours at 65° C. prior to ramping down to hold at 4° C. Hybridized samples were processed on a Nanostring Prep Station according to manufacturer's instructions and then scanned with an FOV setting of 1100. All files (.rcc) were analyzed using nSolver v3.0 software.
As an approach to examine the impact of HSP90 compromise on the immune system in human cancer patients exposed to recommended dosing of an HSP90i, the RNA expression of immune-related genes in whole blood collected from 20 patients was profiled. […]

[2] = tested on: human peripheral blood mononuclear cells; assay: RNA sequencing of ex vivo human peripheral blood mononuclear cells; assay type: cell-based; conditions: 500 nM for 20 hrs
Method: Whole blood was collected into lithium-heparin tubes and processed with Histopaque-1077 (Sigma) to isolate peripheral blood mononuclear cells per supplier's instructions. After overnight culture in RPMI160 with 20% autologous plasma, ganetespib (500 nM) or an equal volume of solvent vehicle (DMSO 0.1% v/v) was added to duplicate dishes. Incubation was continued for 24 hours after which cells were collected by centrifugation, lysed in RLT buffer (Qiagen) and total RNA isolated using an RNeasy kit per manufacturer's instructions (Qiagen). Sequencing library preparation was performed by the Whitehead Genome Technology Core using standard Illumina protocols and TruSeq adapters. Single-end, 40 bp sequencing was performed on a HiSeq 2000 instrument. Adapter sequences were trimmed, and reads were aligned to […] using TopHat2 and rpkm values generated with Cufflinks. Differential expression analysis was performed with the Bioconductor package DEseq.
To evaluate the immunosuppressive effect of high level HSP90 inhibition in a more controlled fashion, freshly isolated human peripheral blood mononuclear cells were cultured in ganetespib (500 nM for 20 hrs.) and the effects on RNA expression genome-wide were measured (FIG. 2A).

[3] = cited from earlier work
[4] = phase I, intravenous infusion days 1, 8 and 15, 4-weekly schedule

In the case of CC(C)c1cc(-c2n[nH]c(=O)n2-c2ccc3c(ccn3C)c2)c(O)cc1O [Ganetespib], the “expression of immune-related genes in whole blood” value [1] is reported as “broad down-regulation of expression across diverse immune-related genes”, the “most downregulated Gene Ontology categories” value [2] is reported as “immune-related pathways” and the “most upregulated Gene Ontology categories” value [2] is reported as “RNA splicing and protein folding”. For the same compound, the “side effects / adverse effects” value ([3]; clinical use) was “diarrhea, fatigue, nausea, and anorexia”, the “MTD as a combination therapy with crizotinib” value ([3]; days 1 and 8 of a 21-day cycle, phase II) was 200 mg/m2 and the ocular toxicity ([3]; human, in vivo) was “No ocular toxicity has been reported”. For the same compound, the “MTD as a monotherapy” value [3, 4] was 216 mg/m^2 and the “highest dose with acceptable toxicity (RP2D)” value [3, 4] was 200 mg/m^2.
